# ChEMBL document CHEMBL3227937, “2',3'-Bis(2-chloroethyl)aminophosphoryl-3'-amino-3'-deoxyadenosine: a cyclic nucleotide with antitumor activity” (1979)
# How the values were obtained:
# [1] = Anticancer activity against mouse LE1210 cells allografted in mouse at 0.625 mg/kg, ip relative to control; format: functional; conditions: route intraperitoneal
# KB = assay: Cytotoxicity against human KB cells; format: functional
Structure (SMILES),T/C [1] [%],"EC50 (KB; Homo sapiens, KB, read-out: ED50 (the source's name)) [µg/mL]",ED50 (KB) [µg/mL]
"Nc1ncnc2c1ncn2[C@@H]1O[C@H](CO)[C@H]2NP(=O)(N(CCCl)CCCl)O[C@H]21 (single isomer, unassigned; isomer 1)",101,1.1,
CN(C)c1ncnc2c1ncn2[C@@H]1O[C@H](CO)[C@H]2NP(=O)(N(CCCl)CCCl)O[C@H]21 (mixture of isomers),101,,
"Nc1ncnc2c1ncn2[C@@H]1O[C@H](CO)[C@H]2NP(=O)(N(CCCl)CCCl)O[C@H]21 (single isomer, unassigned; isomer 2)",,,0.66
